# Results published in ChEMBL document CHEMBL1132512, “Substituted heterocyclic analogs as selective COX-2 inhibitors in the flosulide class” (Bioorg Med Chem Lett, 1999).
# Legend:
# [1] = molecular target: T1, Prostaglandin G/H synthase 2 (Homo sapiens, UniProt P35354); assay: Inhibition of purified recombinant human Prostaglandin G/H synthase 2
# T1 sequence (P35354 whole entry): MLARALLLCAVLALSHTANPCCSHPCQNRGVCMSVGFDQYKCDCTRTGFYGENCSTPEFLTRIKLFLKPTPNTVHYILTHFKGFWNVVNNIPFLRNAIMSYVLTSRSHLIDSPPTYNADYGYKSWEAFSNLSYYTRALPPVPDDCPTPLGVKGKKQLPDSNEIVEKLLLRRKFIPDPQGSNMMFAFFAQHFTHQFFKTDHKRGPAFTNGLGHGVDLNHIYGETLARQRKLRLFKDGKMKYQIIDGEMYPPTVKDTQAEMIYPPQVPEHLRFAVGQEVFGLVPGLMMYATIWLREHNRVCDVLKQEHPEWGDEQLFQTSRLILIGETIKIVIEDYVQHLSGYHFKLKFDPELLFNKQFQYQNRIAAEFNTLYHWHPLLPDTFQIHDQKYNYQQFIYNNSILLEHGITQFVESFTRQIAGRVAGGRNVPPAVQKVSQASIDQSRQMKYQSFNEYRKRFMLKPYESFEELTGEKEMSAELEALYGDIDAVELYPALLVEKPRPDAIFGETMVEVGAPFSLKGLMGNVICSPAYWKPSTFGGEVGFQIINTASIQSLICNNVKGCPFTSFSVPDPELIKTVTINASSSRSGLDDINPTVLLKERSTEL
# [2] = molecular target: T1, Prostaglandin G/H synthase 2; assay: Inhibition of human Prostaglandin G/H synthase 2 expressed in CHO (chinese hamster ovary) cells; assay type: cell-based
# [3] = molecular target: T2, Prostaglandin G/H synthase 1 (Homo sapiens, UniProt P23219); assay: Inhibition of Prostaglandin G/H synthase 1 activity in U937 microsomal assay; assay type: microsomes, Microsome
# T2 sequence (P23219 whole entry): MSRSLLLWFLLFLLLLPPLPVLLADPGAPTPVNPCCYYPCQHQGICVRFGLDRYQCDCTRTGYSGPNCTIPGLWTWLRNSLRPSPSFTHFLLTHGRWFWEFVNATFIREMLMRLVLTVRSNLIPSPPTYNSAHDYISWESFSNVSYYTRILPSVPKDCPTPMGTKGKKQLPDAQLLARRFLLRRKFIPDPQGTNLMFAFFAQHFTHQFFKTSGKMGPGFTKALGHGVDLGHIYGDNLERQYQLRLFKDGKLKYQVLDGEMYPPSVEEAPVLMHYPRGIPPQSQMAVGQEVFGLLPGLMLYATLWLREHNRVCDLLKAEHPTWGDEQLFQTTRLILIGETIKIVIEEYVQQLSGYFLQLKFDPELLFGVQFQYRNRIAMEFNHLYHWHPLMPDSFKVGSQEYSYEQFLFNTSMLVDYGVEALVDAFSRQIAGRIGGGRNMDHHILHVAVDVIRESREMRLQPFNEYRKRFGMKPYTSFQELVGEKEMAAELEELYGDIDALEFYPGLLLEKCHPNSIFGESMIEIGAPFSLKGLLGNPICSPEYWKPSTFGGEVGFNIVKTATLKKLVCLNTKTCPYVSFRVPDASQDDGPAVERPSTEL
# [4] = molecular target: T2, Prostaglandin G/H synthase 1; assay: Inhibition of purified recombinant human Prostaglandin G/H synthase 1
# Rattus norvegicus [5] = assay: In vivo antiinflammatory activity expressed as 50% effective dose was evaluated at 5 hr post dosing in rat pyresis model; assay type: functional
# Rattus norvegicus [6] = assay: In vivo antiinflammatory activity expressed as 30% effective dose was evaluated in rat paw edema assay; assay type: functional
# Rattus norvegicus [7] = assay: In vivo antiinflammatory activity expressed as percent inhibition after administration of 3 mg/kg was evaluated in rat paw edema assay; assay type: functional
# Rattus norvegicus [8] = assay: In vivo antiinflammatory activity expressed as 50% effective dose was evaluated in rat paw edema assay; assay type: functional
SMILES,IC50 [1] [nM],IC50 [2] [nM],IC50 [3] [nM],IC50 [4] [nM],ED50 (Rattus norvegicus [5]) [mg/kg],ED30 (Rattus norvegicus [6]) [mg/kg],inhibition in vivo at 3 mg/kg (Rattus norvegicus [7]) [%],ED50 (Rattus norvegicus [8]) [mg/kg]
CS(=O)(=O)Nc1cc2c(cc1Sc1nccs1)C(=O)OC2,610,27,1300,> 100000,–,–,–,–
CS(=O)(=O)Nc1cc2c(cc1Sc1ccc(F)cc1F)C(=O)CC2,–,–,1600,> 100000,–,–,–,–
CS(=O)(=O)Nc1cc2c(cc1Sc1nccs1)C(=O)CC2,480,320,13000,> 100000,–,–,–,–
CCc1csc(Sc2cc3c(cc2NS(C)(=O)=O)CCC3=O)n1,280,49,14000,~100000,8.1,0.3,43,–
CS(=O)(=O)Nc1cc2c(cc1Sc1ncc(Cl)cc1Cl)C(=O)CC2,360,120,4900,> 100000,–,0.7,–,–
CS(=O)(=O)Nc1cc2c(cc1Sc1ccccn1)C(=O)CC2,810,500,> 30000,> 100000,–,–,–,–
Cc1ccc(Sc2cc3c(cc2NS(C)(=O)=O)CCC3=O)nc1,1000,640,> 100000,> 100000,–,–,–,–
Cc1csc(Sc2cc3c(cc2NS(C)(=O)=O)CCC3=O)n1,380,30,620,> 100000,–,–,–,–
Cc1nc(Sc2cc3c(cc2NS(C)(=O)=O)CCC3=O)sc1C,1700,> 1800,> 100000,> 100000,–,–,–,–
C=Cc1csc(Sc2cc3c(cc2NS(C)(=O)=O)COC3=O)n1,310,140,12000,> 100000,–,–,–,–
CS(=O)(=O)Nc1cc2c(cc1Sc1ncccc1Cl)C(=O)CC2,520,220,6100,> 100000,–,–,–,–
CSc1csc(Sc2cc3c(cc2NS(C)(=O)=O)COC3=O)n1,290,11000,9300,> 100000,–,–,–,–
Cc1cnc(Sc2cc3c(cc2NS(C)(=O)=O)CCC3=O)s1,1500,870,> 100000,> 100000,–,–,–,–
CCc1csc(Sc2cc3c(cc2NS(C)(=O)=O)COC3=O)n1,1000,13,6300,> 100000,2.7,0.16,65,0.93
Cc1csc(Sc2cc3c(cc2NS(C)(=O)=O)COC3=O)n1,6900,43,350,> 100000,–,–,–,–
